{"source": "patent US12234216B2", "about": "“Isotopologues salts, crystalline forms, stereoisomers, of methylone and ethylone and methods of use thereof” (Terran Biosciences Inc., priority 2021, dated 2025)", "tested_on": "participants diagnosed with at least moderate post-traumatic stress disorder (PTSD)", "test": "Double-blind, randomized, placebo-controlled clinical trial of methylone-assisted psychotherapy in PTSD", "format": "in vivo, human", "procedure": "A multicenter, randomized, double-blind, placebo-controlled trial is conducted to assess the efficacy and safety of methylone-assisted psychotherapy versus psychotherapy with placebo control in participants diagnosed with at least moderate post-traumatic stress disorder (PTSD).\nThis multicenter, randomized, double-blind, placebo-controlled trial is conducted at various sites in the United States with IRB approval from each study site. A flexible dose of methylone hydrochloride salt or placebo, followed by a supplemental half-dose unless contraindicated by patient's previous response or medical history, is also administered during the Treatment Period with psychotherapy in at least 3 blinded monthly Experimental Sessions. The Supplemental Dose extends the duration of drug effects on the participants during an Experimental Session. Methylone test groups are further subdivided into specific groups receiving only racemic methylone hydrochloride salt, S-methylone hydrochloride salt, or R-methylone hydrochloride salt. An optional Risk Evaluation and Mitigation Strategy (REMS) Protocol may be implemented for the racemic methylone, S-methylone, and placebo-groups. The Treatment Period lasts for approximately 12 weeks. During the Treatment Period, each Experimental Session is followed by three Intervening Sessions of non-drug psychotherapy. Each Experimental Session involves an overnight stay. The Primary Outcome measure, the change in Clinician Administered PTSD Scale for DSM-5 (CAPS-5), is determined by a blinded Independent Rater (IR) pool multiple times throughout the study. The study consists of separate periods for each participant. Initially, prospective participants undergo a Screening Period involving an initial eligibility assessment, a medical history intake, informed consent, and enrollment of eligible participants. Next, a Preparation Period is undertaken for enrolled participants involving medication tapering and clinical baseline assessments to confirm each participant meets enrollment criteria. As part of the Preparation Period, a detailed assessment of co-morbidities to PTSD is recorded. Participants may remain on prescribed courses of selective serotonin reuptake inhibitor (SSRI) or serotonin and norepinephrine reuptake inhibitor (SNRI) treatment. Dosages and/or frequency of administration of a prescribed SSRI or SNRI may be adjusted to fit within study parameters. Participants may be required to taper a prescribed course of medication in order to maintain eligibility within the study. The Treatment Period consists of three monthly Experimental Sessions and associated Intervening Sessions of integrative behavioral psychotherapy. The Treatment Period lasts approximately 12 weeks. Following the Treatment Period is a Follow-up Period and Study Conclusion. During the Follow-up Period and Study Conclusion, participants complete 4 weeks with no study visits, followed by a Study Conclusion visit.\nThis study compares the effects of three blinded Experimental Sessions of psychotherapy in combination with flexible doses of methylone or placebo administered as described below. Non-drug preparatory and intervening psychotherapy sessions are also included. Patient's weight is determined for dosage calculation. Initial dose is 100 mg unless this will result in a dosage of less than 1.5 mg/kg of patient weight. Initial dose thereby adjusted upward in 25 mg increments to deliver the lowest dose possible of at least 1.5 mg/kg of patient weight. Initial dose for Experimental Session 2 and 3 is cumulative dose calculated by adding the initial dose plus REMS protocol dose used the previous Experimental Session for each patient.\nRandomization occurs prior to the initiation of Experimental Session 1. Each participant is provided the next randomized number in a sequence by a blinded study monitor. […]", "key": {"[1]": {"conditions": "Study Conclusion, vs placebo-treated controls"}}, "note": "Structures can show the parent of a compound that is named as a salt."}
{"smiles": "CNC(C)C(=O)c1ccc2c(c1)OCO2", "note": "(racemic) [(rac)-Methylone Hydrochloride, 3,4-methylenedioxy-N-methylcathinone hydrochloride]", "values": [{"measurement": "CAPS-5 assessments compared to placebo-treated controls", "setting": "Intervening Session 1C, 2C, 3C and Study Conclusion", "value": "Significant improvements in CAPS-5 assessments"}, {"measurement": "daytime sleepiness as measured by ESS", "setting": "Study Conclusion", "value": "significant improvement in lessening daytime sleepiness"}, {"measurement": "clinician-rated functional impairment score as measured by SDS", "setting": "[1]", "value": "significant improvement in clinician-rated functional impairment score"}, {"measurement": "depression as measured by HAM-D", "setting": "[1]", "value": "significant improvement depression"}, {"measurement": "change in CAPS-5 assessment compared to the placebo group", "setting": "Study Conclusion, 100-200 mg p.o. initial dose, 3 Experimental Sessions with psychotherapy", "value": "significant mean reduction in CAPS-5 assessment"}]}
